Test results as given in patent publication US20220002314A1 (priority 2018, published 2022).
pKi: −log10 of the molar value. Read-outs that look alike come from different tables or passages of the source.

Assays:
[1] = target: Human α2δ-1 subunit of Cav2.2 calcium channel (Homo sapiens, UniProt P54289); experiment: biochemical; assay type: binding
Human μ-opioid receptor = Human μ-opioid receptor (Homo sapiens, UniProt P35372); experiment: biochemical; assay type: binding
Sequence of Human μ-opioid receptor (P35372 whole entry): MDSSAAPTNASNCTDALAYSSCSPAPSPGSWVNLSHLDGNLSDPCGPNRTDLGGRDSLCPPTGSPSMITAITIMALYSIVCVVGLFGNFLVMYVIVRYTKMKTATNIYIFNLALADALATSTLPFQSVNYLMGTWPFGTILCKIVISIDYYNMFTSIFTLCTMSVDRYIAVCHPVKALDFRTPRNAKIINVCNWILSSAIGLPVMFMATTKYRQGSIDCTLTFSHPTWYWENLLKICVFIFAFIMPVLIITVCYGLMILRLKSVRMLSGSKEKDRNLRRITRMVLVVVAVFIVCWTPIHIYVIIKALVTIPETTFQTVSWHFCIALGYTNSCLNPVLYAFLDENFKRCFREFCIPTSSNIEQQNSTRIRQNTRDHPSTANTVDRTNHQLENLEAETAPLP

Sequence of Human α2δ-1 subunit of Cav2.2 calcium channel (P54289 25-1103): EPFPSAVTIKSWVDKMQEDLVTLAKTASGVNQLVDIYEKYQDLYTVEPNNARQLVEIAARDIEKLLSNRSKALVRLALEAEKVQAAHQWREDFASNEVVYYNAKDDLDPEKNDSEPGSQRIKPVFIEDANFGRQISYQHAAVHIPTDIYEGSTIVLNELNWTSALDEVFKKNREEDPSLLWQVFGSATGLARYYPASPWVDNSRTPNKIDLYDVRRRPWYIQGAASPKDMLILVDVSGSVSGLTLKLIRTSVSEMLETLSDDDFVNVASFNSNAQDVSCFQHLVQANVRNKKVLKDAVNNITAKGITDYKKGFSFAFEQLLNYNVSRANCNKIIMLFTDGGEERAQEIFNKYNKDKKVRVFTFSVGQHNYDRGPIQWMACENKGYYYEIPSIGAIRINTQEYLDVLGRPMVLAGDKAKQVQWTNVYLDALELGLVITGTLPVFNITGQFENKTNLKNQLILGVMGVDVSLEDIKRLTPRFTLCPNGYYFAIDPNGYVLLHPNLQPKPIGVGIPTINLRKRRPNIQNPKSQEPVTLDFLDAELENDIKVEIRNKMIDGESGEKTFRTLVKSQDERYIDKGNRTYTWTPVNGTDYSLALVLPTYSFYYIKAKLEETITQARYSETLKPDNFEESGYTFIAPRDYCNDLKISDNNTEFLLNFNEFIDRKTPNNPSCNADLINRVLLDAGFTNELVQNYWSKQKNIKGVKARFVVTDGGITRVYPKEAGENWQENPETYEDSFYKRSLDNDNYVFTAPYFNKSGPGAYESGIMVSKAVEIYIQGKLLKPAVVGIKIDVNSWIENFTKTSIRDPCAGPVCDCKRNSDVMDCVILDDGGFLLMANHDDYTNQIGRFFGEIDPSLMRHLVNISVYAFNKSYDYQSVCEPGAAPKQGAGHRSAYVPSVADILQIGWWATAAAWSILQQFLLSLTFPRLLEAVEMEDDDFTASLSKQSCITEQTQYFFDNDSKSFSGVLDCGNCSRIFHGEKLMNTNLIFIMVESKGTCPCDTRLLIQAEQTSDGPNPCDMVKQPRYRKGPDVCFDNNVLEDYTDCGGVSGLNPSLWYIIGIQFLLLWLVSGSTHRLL

Row | pKi ([1]; read-out: α2δ-1 binding) | pKi (Human μ-opioid receptor; read-out: μ-binding) | SMILES | pKi [1] | pKi (Human μ-opioid receptor)
1 |  |  | CCC[C@@H](c1nc2ccc(Br)cc2c(=O)n1CC)N1CCN[C@@H](COC)C1 [Example 220, 6-bromo-3-ethyl-2-((S)-1-((R)-3-(methoxymethyl)piperazin-1-yl)butyl)quinazolin-4(3H)-one] | < 5.30 | < 6.30
2 |  |  | CCC[C@H](c1nc2cc(F)c(Cl)cc2c(=O)n1C)N1CCN[C@@H](C)C1 [Example 221, 6-chloro-7-fluoro-3-methyl-2-((R)-1-((S)-3-methylpiperazin-1-yl)butyl)quinazolin-4(3H)-one] | 5.30 to 6.30 | > 7.00
3 | 5.30 to 6.30 | < 6.30 | CCC[C@H](c1nc2ccc(F)c(F)c2c(=O)n1C)N1CCN[C@@H](C)C1 [Example 222, 5,6-difluoro-3-methyl-2-((R)-1-((S)-3-methylpiperazin-1-yl)butyl)quinazolin-4(3H)-one] |  | 
4 |  |  | CCC[C@H](c1nc2c(F)cc(Cl)cc2c(=O)n1C)N1CCN[C@@H](C)C1 [Example 223, 6-chloro-8-fluoro-3-methyl-2-((R)-1-((S)-3-methylpiperazin-1-yl)butyl)quinazolin-4(3H)-one] | < 5.30 | > 7.00
5 |  |  | CCC[C@H](c1nc2ccc(Br)cc2c(=O)n1CC)N1CCNC(C)(C)C1 [Example 224, (R)-6-bromo-2-(1-(3,3-dimethylpiperazin-1-yl)butyl)-3-ethylquinazolin-4(3H)-one] | < 5.30 | > 7.00
6 |  |  | CCC[C@H](c1nc2c(F)cc(F)cc2c(=O)n1C)N1CCN[C@@H](C)C1 [Example 225, 6,8-difluoro-3-methyl-2-((R)-1-((S)-3-methylpiperazin-1-yl)butyl)quinazolin-4(3H)-one] | 5.30 to 6.30 | 6.30 to 7.00
7 |  |  | CCC[C@H](c1nc2c(F)cc(F)c(F)c2c(=O)n1CC)N1CCN[C@@H](C)C1 [Example 226, 3-ethyl-5,6,8-trifluoro-2-((R)-1-((S)-3-methylpiperazin-1-yl)butyl)quinazolin-4(3H)-one] | 5.30 to 6.30 | 6.30 to 7.00
8 |  |  | CCC[C@@H](c1nc2ccc(Br)cc2c(=O)n1CC)N1C[C@H](C)N[C@@H](C)C1 [Example 227, 6-Bromo-2-((S)-1-((3S,5S)-3,5-dimethylpiperazin-1-yl)butyl)-3-ethylquinazolin-4(3H)-one] | < 5.30 | < 6.30
9 |  |  | CCC[C@H](c1nc2ccc(Br)cc2c(=O)n1CC)N1C[C@H](C)N[C@@H](C)C1 [Example 228, 6-Bromo-2-((R)-1-((3S,5S)-3,5-dimethylpiperazin-1-yl)butyl)-3-ethylquinazolin-4(3H)-one] | < 5.30 | > 7.00
10 |  |  | CCC[C@H](c1nc2ccc(Cl)cc2c(=O)n1CC)N1CCN[C@H](CF)C1 [Example 229, 6-Chloro-3-ethyl-2-((R)-1-((S)-3-(fluoromethyl)piperazin-1-yl)butyl)quinazolin-4(3H)-one] | > 6.30 | < 6.30
11 |  |  | CCC[C@H](c1nc2ccc(Cl)cc2c(=O)n1CC)N1CCN[C@@H](CF)C1 [Example 230, 6-chloro-3-ethyl-2-((R)-1-((R)-3-(fluoromethyl)piperazin-1-yl)butyl)quinazolin-4(3H)-one] | 5.30 to 6.30 | < 6.30
12 |  |  | CCC[C@@H](c1nc2ccc(Cl)cc2c(=O)n1CC)N1CCN[C@@H](CF)C1 [Example 231, 6-chloro-3-ethyl-2-((S)-1-((R)-3-(fluoromethyl)piperazin-1-yl)butyl)quinazolin-4(3H)-one] | < 5.30 | < 6.30
13 |  |  | CCC[C@@H](c1nc2ccc(Cl)cc2c(=O)n1CC)N1CCN[C@H](CF)C1 [Example 232, 6-chloro-3-ethyl-2-((S)-1-((S)-3-(fluoromethyl)piperazin-1-yl)butyl)quinazolin-4(3H)-one] | < 5.30 | < 6.30
14 |  |  | CCC[C@H](c1nc2cnc(C(F)(F)F)cc2c(=O)n1CC)N1CCN[C@H](C)C1 [Example 233, 3-Ethyl-2-((R)-1-((R)-3-methylpiperazin-1-yl)butyl)-6-(trifluoromethyl)pyrido[3,4-d]pyrimidin-4(3H)-one] | > 6.30 | < 6.30
15 |  |  | CCC[C@H](c1nc2cnc(C(F)(F)F)cc2c(=O)n1CC)N1CCN[C@@H](C)C1 [Example 234, 3-ethyl-2-((R)-1-((S)-3-methylpiperazin-1-yl)butyl)-6-(trifluoromethyl)pyrido[3,4-d]pyrimidin-4(3H)-one] | > 6.30 | < 6.30
16 |  |  | CCC[C@@H](c1nc2cnc(C(F)(F)F)cc2c(=O)n1CC)N1CCN[C@@H](C)C1 [Example 235, 3-ethyl-2-((S)-1-((S)-3-methylpiperazin-1-yl)butyl)-6-(trifluoromethyl)pyrido[3,4-d]pyrimidin-4(3H)-one] | < 5.30 | < 6.30
17 |  |  | CCC[C@H](c1nc2ccc(C(NC)c3ccccc3)cc2c(=O)n1CC)N1C[C@@H](C)N[C@@H](C)C1 (stereo partly drawn) [Example 236, 2-((R)-1-((3S,5R)-3,5-Dimethylpiperazin-1-yl)butyl)-3-ethyl-6-((methylamino)(phenyl)methyl)quinazolin-4(3H)-one] | > 6.30 | < 6.30
